Laboratory results published in patent publication US20040097468A1, “Method of treating osteoporosis and other bone disorders with upfront loading of bisphosphonates, and kits for such treatment” (priority 2002, published 2004).

Key:
humans = experiment: Spinal (vertebral) BMD, loading vs standard doses of bisphosphonates over one year; assay type: in vivo, human
Experimental: FIG. 4. illustrates the effects of standard recommended dose of risedronate (35 mg once a week), vs. loading dose of risedronate (for doses, see the section on oral administration of bisphosphonates) on vertebral BMD.
This will then be followed up with once weekly administration (i.e., infrequent administration) of a single dose of similar strength, what is currently used on a longer-term basis.

osteoporotic patients = details: intravenous injections 0.5 or 1.0 mg every 3 months for 3 years; cited from earlier work

O=P(O)(O)C(O)(Cc1cccnc1)P(=O)(O)O [risedronate, 1-hydroxy-2-(3-pyridinyl)-ethylidene-1,1-bisphosphonic acid]
Increase in spinal BMD (humans; risedronate loading dose, 3 months): +1.5% | Increase in spinal BMD (humans; risedronate loading dose, 6 months): +4.0% | Increase in spinal BMD (humans; risedronate loading dose, 12 months): +5.6% | Increase in spinal BMD (humans; risedronate standard dose (35 mg once a week), 3 months): +0.4% | Increase in spinal BMD (humans; risedronate standard dose (35 mg once a week), 6 months): +2.2% | Increase in spinal BMD (humans; risedronate standard dose (35 mg once a week), 12 months): +4.3%

CCCCCN(C)CCC(O)(P(=O)(O)O)P(=O)(O)O [ibandronate, 1-hydroxy-3-(N-methyl-N-pentylamino)propylidene-1,1-bisphosphonic acid]
Change in BMD (osteoporotic patients): moderate increase in BMD | Change in incidence of new osteoporotic fractures (osteoporotic patients): small, but not significant, decrease

NCCCC(O)(P(=O)(O)O)P(=O)(O)O [alendronate, 4-amino-1-hydroxybutylidene-1,1-bisphosphonic acid monosodium trihydrate]
Increase in spinal BMD (humans; alendronate loading dose, 3 months): +1.2% | Increase in spinal BMD (humans; alendronate loading dose, 6 months): +3.6% | Increase in spinal BMD (humans; alendronate loading dose, 12 months): +5.8% | Increase in spinal BMD (humans; alendronate standard dose (70 mg once a week), 3 months): +0.4% | Increase in spinal BMD (humans; alendronate standard dose (70 mg once a week), 6 months): +1.1% | Increase in spinal BMD (humans; alendronate standard dose (70 mg once a week), 12 months): +4.5%
